Assay results reported in ChEMBL document CHEMBL4251572, “Novel aminopyrimidinyl benzimidazoles as potentially antimicrobial agents: Design, synthesis and biological evaluation” (Eur J Med Chem, 2018).
Converted amounts (≈) assume the structure as drawn.

Legend:
[1] = tested on: Pseudomonas aeruginosa; experiment: Antibacterial activity against Pseudomonas aeruginosa after 24 hrs by micro broth dilution assay; format: functional
[2] = tested on: Saccharomyces cerevisiae; experiment: Antifungal against Saccharomyces cerevisiae after 24 hrs by two fold serial dilution method; format: functional
[3] = tested on: Pichia norvegensis; experiment: Antifungal against Candida mycoderma after 24 hrs by two fold serial dilution method; format: functional
[4] = tested on: Escherichia coli; experiment: Antibacterial activity against Escherichia coli DH52 after 24 hrs by micro broth dilution assay; format: functional; settings: DH52, 24 h
[5] = tested on: Cyberlindnera jadinii; experiment: Antifungal against Candida utilis after 24 hrs by two fold serial dilution method; format: functional; settings: Williopsis jadinii
[6] = tested on: Aspergillus flavus; experiment: Antifungal against Aspergillus flavus after 24 hrs by two fold serial dilution method; format: functional
[7] = tested on: Micrococcus luteus; experiment: Antibacterial activity against Micrococcus luteus ATCC4698 after 24 hrs by micro broth dilution assay; format: functional; settings: ATCC4698, 24 h
[8] = tested on: Escherichia coli; experiment: Antibacterial activity against Escherichia coli JM109 after 24 hrs by micro broth dilution assay; format: functional; settings: JM109, 24 h
[9] = tested on: Staphylococcus aureus; experiment: Antibacterial activity against Staphylococcus aureus ATCC 25923 after 24 hrs by micro broth dilution assay; format: functional; settings: ATCC 25923, 24 h
[10] = tested on: Bacillus; experiment: Antibacterial activity against Bacillus proteus ATCC 13315 after 24 hrs by micro broth dilution assay; format: functional; settings: ATCC 13315, 24 h
[11] = tested on: Salmonella typhi; experiment: Antibacterial activity against Bacillus typhi after 24 hrs by micro broth dilution assay; format: functional, Salmonella enterica subsp. enterica serovar Typhi; settings: Salmonella enterica
[12] = tested on: Bacillus subtilis; experiment: Antibacterial activity against Bacillus subtilis after 24 hrs by micro broth dilution assay; format: functional
[13] = tested on: Shigella dysenteriae; experiment: Antibacterial activity against Shigella dysenteriae after 24 hrs by micro broth dilution assay; format: functional
[14] = tested on: Staphylococcus aureus; experiment: Antibacterial activity against methicillin-resistant Staphylococcus aureus N315 after 24 hrs by micro broth dilution assay; format: functional; settings: N315, 24 h
[15] = tested on: Candida albicans; experiment: Antifungal against Candida albicans ATCC 76615 after 24 hrs by two fold serial dilution method; format: functional; settings: ATCC 76615, 24 h

Compound	MIC [1]	MIC [2]	MIC [3]	MIC [4]	MIC [5]	MIC [6]	MIC [7]	MIC [8]	MIC [9]	MIC [10]	MIC [11]	MIC [12]	MIC [13]	MIC [14]	MIC [15]
CCCCCCCCn1c(-c2cc(-c3ccc(F)cc3)nc(N)n2)nc2ccccc21	512 µg/mL (≈ 1230 µM)	16 µg/mL (≈ 38.3 µM)	64 µg/mL (≈ 153 µM)	512 µg/mL (≈ 1230 µM)	8 µg/mL (≈ 19.2 µM)	128 µg/mL (≈ 307 µM)	32 µg/mL (≈ 76.6 µM)	256 µg/mL (≈ 613 µM)	256 µg/mL (≈ 613 µM)	512 µg/mL (≈ 1230 µM)	512 µg/mL (≈ 1230 µM)	256 µg/mL (≈ 613 µM)	512 µg/mL (≈ 1230 µM)	256 µg/mL (≈ 613 µM)	256 µg/mL (≈ 613 µM)
CCCCn1c(C(=O)/C=C/c2ccc(Cl)cc2)nc2ccccc21	512 µg/mL (≈ 1510 µM)	16 µg/mL (≈ 47.2 µM)	256 µg/mL (≈ 756 µM)	512 µg/mL (≈ 1510 µM)	512 µg/mL (≈ 1510 µM)	512 µg/mL (≈ 1510 µM)	512 µg/mL (≈ 1510 µM)	256 µg/mL (≈ 756 µM)	64 µg/mL (≈ 189 µM)	128 µg/mL (≈ 378 µM)	512 µg/mL (≈ 1510 µM)	512 µg/mL (≈ 1510 µM)	32 µg/mL (≈ 94.4 µM)	8 µg/mL (≈ 23.6 µM)	256 µg/mL (≈ 756 µM)
CCCCCCCn1c(C(=O)/C=C/c2ccc(Cl)cc2)nc2ccccc21	512 µg/mL (≈ 1340 µM)	512 µg/mL (≈ 1340 µM)	512 µg/mL (≈ 1340 µM)	32 µg/mL (≈ 84 µM)	512 µg/mL (≈ 1340 µM)	64 µg/mL (≈ 168 µM)	8 µg/mL (≈ 21 µM)	512 µg/mL (≈ 1340 µM)	256 µg/mL (≈ 672 µM)	512 µg/mL (≈ 1340 µM)	512 µg/mL (≈ 1340 µM)	256 µg/mL (≈ 672 µM)	512 µg/mL (≈ 1340 µM)	512 µg/mL (≈ 1340 µM)	512 µg/mL (≈ 1340 µM)
CCCCCCCn1c(C(=O)/C=C/c2ccc(C)cc2)nc2ccccc21	512 µg/mL (≈ 1420 µM)	512 µg/mL (≈ 1420 µM)	512 µg/mL (≈ 1420 µM)	512 µg/mL (≈ 1420 µM)	512 µg/mL (≈ 1420 µM)	512 µg/mL (≈ 1420 µM)	512 µg/mL (≈ 1420 µM)	512 µg/mL (≈ 1420 µM)	4 µg/mL (≈ 11.1 µM)	512 µg/mL (≈ 1420 µM)	512 µg/mL (≈ 1420 µM)	512 µg/mL (≈ 1420 µM)	512 µg/mL (≈ 1420 µM)	8 µg/mL (≈ 22.2 µM)	16 µg/mL (≈ 44.4 µM)
CCCCCCCn1c(C(=O)/C=C/c2ccc(Cl)cc2Cl)nc2ccccc21	512 µg/mL (≈ 1230 µM)	512 µg/mL (≈ 1230 µM)	512 µg/mL (≈ 1230 µM)	512 µg/mL (≈ 1230 µM)	512 µg/mL (≈ 1230 µM)	512 µg/mL (≈ 1230 µM)	512 µg/mL (≈ 1230 µM)	512 µg/mL (≈ 1230 µM)	128 µg/mL (≈ 308 µM)	512 µg/mL (≈ 1230 µM)	512 µg/mL (≈ 1230 µM)	512 µg/mL (≈ 1230 µM)	256 µg/mL (≈ 616 µM)	512 µg/mL (≈ 1230 µM)	512 µg/mL (≈ 1230 µM)
CCCCCCn1c(C(=O)/C=C/c2ccc(Cl)cc2)nc2ccccc21	512 µg/mL (≈ 1400 µM)	8 µg/mL (≈ 21.8 µM)	128 µg/mL (≈ 349 µM)	16 µg/mL (≈ 43.6 µM)	512 µg/mL (≈ 1400 µM)	128 µg/mL (≈ 349 µM)	32 µg/mL (≈ 87.2 µM)	512 µg/mL (≈ 1400 µM)	512 µg/mL (≈ 1400 µM)	512 µg/mL (≈ 1400 µM)	128 µg/mL (≈ 349 µM)	256 µg/mL (≈ 698 µM)	512 µg/mL (≈ 1400 µM)	512 µg/mL (≈ 1400 µM)	512 µg/mL (≈ 1400 µM)
CCCCCCn1c(C(=O)/C=C/c2ccc(Cl)cc2Cl)nc2ccccc21	512 µg/mL (≈ 1280 µM)	512 µg/mL (≈ 1280 µM)	512 µg/mL (≈ 1280 µM)	512 µg/mL (≈ 1280 µM)	512 µg/mL (≈ 1280 µM)	512 µg/mL (≈ 1280 µM)	512 µg/mL (≈ 1280 µM)	512 µg/mL (≈ 1280 µM)	32 µg/mL (≈ 79.7 µM)	512 µg/mL (≈ 1280 µM)	512 µg/mL (≈ 1280 µM)	512 µg/mL (≈ 1280 µM)	512 µg/mL (≈ 1280 µM)	256 µg/mL (≈ 638 µM)	512 µg/mL (≈ 1280 µM)
CCCCCCCn1c(-c2cc(-c3ccc(Cl)cc3)nc(N)n2)nc2ccccc21	64 µg/mL (≈ 152 µM)	8 µg/mL (≈ 19 µM)	16 µg/mL (≈ 38.1 µM)	16 µg/mL (≈ 38.1 µM)	4 µg/mL (≈ 9.52 µM)	256 µg/mL (≈ 610 µM)	512 µg/mL (≈ 1220 µM)	512 µg/mL (≈ 1220 µM)	128 µg/mL (≈ 305 µM)	512 µg/mL (≈ 1220 µM)	8 µg/mL (≈ 19 µM)	2 µg/mL (≈ 4.76 µM)	4 µg/mL (≈ 9.52 µM)	8 µg/mL (≈ 19 µM)	128 µg/mL (≈ 305 µM)
CCCCCCCn1c(C(=O)/C=C/c2ccc(F)cc2)nc2ccccc21	512 µg/mL (≈ 1400 µM)	512 µg/mL (≈ 1400 µM)	512 µg/mL (≈ 1400 µM)	512 µg/mL (≈ 1400 µM)	> 512 µg/mL	512 µg/mL (≈ 1400 µM)	512 µg/mL (≈ 1400 µM)	128 µg/mL (≈ 351 µM)	512 µg/mL (≈ 1400 µM)	512 µg/mL (≈ 1400 µM)	512 µg/mL (≈ 1400 µM)	512 µg/mL (≈ 1400 µM)	512 µg/mL (≈ 1400 µM)	64 µg/mL (≈ 176 µM)	512 µg/mL (≈ 1400 µM)
CCCCCCn1c(-c2cc(-c3ccc(Cl)cc3Cl)nc(N)n2)nc2ccccc21	512 µg/mL (≈ 1160 µM)	512 µg/mL (≈ 1160 µM)	512 µg/mL (≈ 1160 µM)	64 µg/mL (≈ 145 µM)	512 µg/mL (≈ 1160 µM)	512 µg/mL (≈ 1160 µM)	512 µg/mL (≈ 1160 µM)	512 µg/mL (≈ 1160 µM)	512 µg/mL (≈ 1160 µM)	512 µg/mL (≈ 1160 µM)	512 µg/mL (≈ 1160 µM)	512 µg/mL (≈ 1160 µM)	512 µg/mL (≈ 1160 µM)	512 µg/mL (≈ 1160 µM)	256 µg/mL (≈ 581 µM)
OC(Cn1cncn1)(Cn1cncn1)c1ccc(F)cc1F [FLUCONAZOLE]		8 µg/mL (≈ 26.1 µM)	4 µg/mL (≈ 13.1 µM)		16 µg/mL (≈ 52.2 µM)	256 µg/mL (≈ 836 µM)									1 µg/mL (≈ 3.27 µM)
